Among the data in US20230117034A1, “PYRAZOLOTRIAZINES” (Bayer Aktiengesellschaft, priority 2019, published 2023) are IC50 and DC50 values, retold here.

For one experiment, the target named is CDK12/CycK (Homo sapiens, UniProt Q9NYV4). The experiment is described as follows: CDK12/CycK high ATP kinase assay (TR-FRET, 2 mM ATP). Type of experiment: biochemical. To be noted: 2 mM ATP (high ATP); median; read-out: CDK12/CyclinK, 2 mM ATP (high ATP), IC50-[mol/l] (median). The gist of the method: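 Read-out is TR-FRET (Eu-anti-rabbit IgG, anti-phospho-c-Myc Ser62 antibody, streptavidin-XL665) after EDTA stop. Reaction ran 60 min at 22 °C using 1 µM biotin-peptide and high ATP (2 mM) with roughly 0.75 nM recombinant CDK12/CycK, after 15 min compound pre-binding; normalised emission ratios yield IC50.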

Experiment [1] deals with T1, CYCLIN K (nuclear staining in CAL-120 cells) (Homo sapiens, UniProt O75909).
T1 construct: endogenous in cells; host or cells: CAL-120 human breast cancer cells (DSMZ ACC 459)
Description: CYCLIN K nuclear protein level: immunofluorescence high content analysis (CAL-120). Type of experiment: cell-based. To be noted: 24 h, 50% reduction of nuclear CCNK staining intensity, median, read-out: CYCLIN K degradation IF, DC50-[mol/l] (median). The gist of the method: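 Readout is automated confocal image analysis of nuclear cyclin K immunofluorescence (Hoechst nuclei) after PFA fixation. Cells were CAL-120, exposed to compound dose-response 24 h at 37 °C; values are DC50 for halving nuclear CCNK signal relative to DMSO and control wells.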

pIC50: −log10 of the molar value.

T1 sequence (O75909 whole entry): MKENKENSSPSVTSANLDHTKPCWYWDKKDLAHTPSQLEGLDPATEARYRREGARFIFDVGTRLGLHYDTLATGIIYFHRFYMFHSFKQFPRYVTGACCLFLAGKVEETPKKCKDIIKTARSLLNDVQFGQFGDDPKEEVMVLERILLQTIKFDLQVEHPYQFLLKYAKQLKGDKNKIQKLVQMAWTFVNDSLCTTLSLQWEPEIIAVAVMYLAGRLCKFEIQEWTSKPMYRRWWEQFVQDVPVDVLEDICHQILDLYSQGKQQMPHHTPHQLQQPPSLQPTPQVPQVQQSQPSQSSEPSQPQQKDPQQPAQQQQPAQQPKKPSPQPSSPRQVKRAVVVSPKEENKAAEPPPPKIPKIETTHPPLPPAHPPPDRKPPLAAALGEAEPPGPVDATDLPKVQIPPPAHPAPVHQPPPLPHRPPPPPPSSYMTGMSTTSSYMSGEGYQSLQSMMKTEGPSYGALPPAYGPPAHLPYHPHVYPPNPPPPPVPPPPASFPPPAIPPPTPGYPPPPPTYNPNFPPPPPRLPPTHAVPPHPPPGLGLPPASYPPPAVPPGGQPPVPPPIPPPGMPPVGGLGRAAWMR
T1 sequence (Q9NYV4 whole entry partner): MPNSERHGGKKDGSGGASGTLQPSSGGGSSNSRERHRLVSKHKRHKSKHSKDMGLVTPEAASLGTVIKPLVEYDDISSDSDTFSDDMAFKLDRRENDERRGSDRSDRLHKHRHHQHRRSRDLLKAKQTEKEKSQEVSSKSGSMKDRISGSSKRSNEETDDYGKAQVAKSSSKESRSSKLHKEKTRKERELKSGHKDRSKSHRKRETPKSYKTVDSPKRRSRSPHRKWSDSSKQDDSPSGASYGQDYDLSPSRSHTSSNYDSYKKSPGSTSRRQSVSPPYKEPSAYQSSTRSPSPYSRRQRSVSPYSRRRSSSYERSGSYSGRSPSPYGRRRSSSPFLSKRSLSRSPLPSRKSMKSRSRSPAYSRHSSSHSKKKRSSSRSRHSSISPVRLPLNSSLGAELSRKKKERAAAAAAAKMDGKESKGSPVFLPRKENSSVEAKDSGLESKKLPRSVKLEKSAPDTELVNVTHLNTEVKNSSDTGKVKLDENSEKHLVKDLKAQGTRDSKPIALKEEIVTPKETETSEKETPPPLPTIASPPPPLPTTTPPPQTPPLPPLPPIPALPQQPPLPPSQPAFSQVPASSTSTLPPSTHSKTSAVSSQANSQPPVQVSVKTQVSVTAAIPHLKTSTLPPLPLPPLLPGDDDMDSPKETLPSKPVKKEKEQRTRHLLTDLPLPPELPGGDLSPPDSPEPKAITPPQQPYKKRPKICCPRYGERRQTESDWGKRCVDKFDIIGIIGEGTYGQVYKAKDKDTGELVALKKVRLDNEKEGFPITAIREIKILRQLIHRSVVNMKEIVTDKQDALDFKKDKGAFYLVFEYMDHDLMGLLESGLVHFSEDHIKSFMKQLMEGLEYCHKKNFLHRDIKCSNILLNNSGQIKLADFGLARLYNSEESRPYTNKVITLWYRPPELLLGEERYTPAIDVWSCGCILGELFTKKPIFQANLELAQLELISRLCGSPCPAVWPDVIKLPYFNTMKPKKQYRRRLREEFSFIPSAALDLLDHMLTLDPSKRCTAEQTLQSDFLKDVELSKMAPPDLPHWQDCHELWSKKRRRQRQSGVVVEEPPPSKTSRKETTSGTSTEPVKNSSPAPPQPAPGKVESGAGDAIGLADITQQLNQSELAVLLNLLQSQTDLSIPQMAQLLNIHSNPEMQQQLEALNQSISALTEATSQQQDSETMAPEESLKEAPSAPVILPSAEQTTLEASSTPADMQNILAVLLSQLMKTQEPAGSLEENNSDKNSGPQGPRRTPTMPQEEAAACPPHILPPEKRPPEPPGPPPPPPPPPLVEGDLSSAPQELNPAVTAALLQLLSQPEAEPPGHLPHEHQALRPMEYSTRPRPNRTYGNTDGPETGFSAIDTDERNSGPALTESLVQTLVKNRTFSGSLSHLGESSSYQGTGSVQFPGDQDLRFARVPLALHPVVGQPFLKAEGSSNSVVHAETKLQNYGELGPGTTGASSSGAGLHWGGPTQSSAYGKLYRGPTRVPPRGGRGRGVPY
Sequence of CDK12/CycK (Q9NYV4 with tags, fused parts or gaps): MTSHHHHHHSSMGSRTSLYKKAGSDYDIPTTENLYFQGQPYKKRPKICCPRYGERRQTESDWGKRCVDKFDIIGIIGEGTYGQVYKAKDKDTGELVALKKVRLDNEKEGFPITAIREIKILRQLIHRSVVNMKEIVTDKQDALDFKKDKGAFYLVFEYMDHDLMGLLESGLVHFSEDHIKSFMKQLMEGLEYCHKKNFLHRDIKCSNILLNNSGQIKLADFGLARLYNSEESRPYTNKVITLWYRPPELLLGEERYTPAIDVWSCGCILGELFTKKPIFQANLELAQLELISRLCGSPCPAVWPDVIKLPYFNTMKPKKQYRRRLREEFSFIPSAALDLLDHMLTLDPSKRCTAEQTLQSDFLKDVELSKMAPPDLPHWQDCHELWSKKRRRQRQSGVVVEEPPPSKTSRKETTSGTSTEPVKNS
Sequence of CDK12/CycK (O75909 1-300 partner limits assumed): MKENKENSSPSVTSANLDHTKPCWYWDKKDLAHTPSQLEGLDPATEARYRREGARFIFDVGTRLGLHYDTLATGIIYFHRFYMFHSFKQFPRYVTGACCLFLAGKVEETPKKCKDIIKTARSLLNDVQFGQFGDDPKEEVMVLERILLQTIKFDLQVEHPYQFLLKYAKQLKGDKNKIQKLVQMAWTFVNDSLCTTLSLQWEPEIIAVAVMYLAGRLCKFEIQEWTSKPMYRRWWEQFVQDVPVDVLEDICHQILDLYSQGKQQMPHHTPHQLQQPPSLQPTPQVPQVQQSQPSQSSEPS

As for `C[C@@]1(O)CCN(c2nc(NCc3nc4ccccc4[nH]3)n3ncc(Br)c3n2)C1` (single isomer, unassigned) [Example 281, (3R or S)-1-(4-{[(1H-benzimidazol-2-yl)methyl]amino}-8-bromopyrazolo[1,5-a][1,3,5]triazin-2-yl)-3-methylpyrrolidin-3-ol], the pIC50 at CDK12/CycK was less than 4.77. The DC50 in experiment [1] came to 20.8 nM.
For `CN(CC(C)(C)O)c1nc(NCc2nc3c(F)cccc3[nH]2)n2ncc(C3CC3)c2n1` [Example 295, 1-[(8-cyclopropyl-4-{[(4-fluoro-1H-benzimidazol-2-yl)methyl]amino}pyrazolo[1,5-a][1,3,5]triazin-2-yl)(methyl)amino]-2-methylpropan-2-ol], the pIC50 at CDK12/CycK was 6.08. For the same compound, the DC50 in experiment [1] turned out to be 2.55 nM.
The matching figures for `Fc1ccc2[nH]c(CNc3nc(N4CCOCC4)nc4c([C@@H]5CC5(F)F)cnn34)nc2c1` (single isomer, unassigned) [Example 315, 8-[(1R or S)-2,2-difluorocyclopropyl]-N-[(5-fluoro-1H-benzimidazol-2-yl)methyl]-2-(morpholin-4-yl)pyrazolo[1,5-a][1,3,5]triazin-4-amine]: less than 4.71 and 2.15 nM.
In the same order, the values of `c1ccc2[nH]c(CNc3nc(N4CCOCC4)nc4c(C5CCCC5)cnn34)nc2c1` [Example 244, N-[(1H-benzimidazol-2-yl)methyl]-8-cyclopentyl-2-(morpholin-4-yl)pyrazolo[1,5-a][1,3,5]triazin-4-amine] are less than 4.70 and 15.6 nM.
In the same order, the values of `Fc1ccc2[nH]c(CNc3nc(N4CCOCC4)nc4c(C5CCC5)cnn34)nc2c1F` [Example 264, 8-cyclobutyl-N-[(4,5-difluoro-1H-benzimidazol-2-yl)methyl]-2-(morpholin-4-yl)pyrazolo[1,5-a][1,3,5]triazin-4-amine] are 5.65 and 1.8 nM.
On to `Brc1cnn2c(NCc3nc4ccccc4[nH]3)nc(N3C[C@@H]4C[C@H]3CN4)nc12` [Example 270, N-[(1H-benzimidazol-2-yl)methyl]-8-bromo-2-[(1S,4S)-2,5-diazabicyclo[2.2.1]heptan-2-yl]pyrazolo[1,5-a][1,3,5]triazin-4-amine], for which the pIC50 at CDK12/CycK was 4.86. In experiment [1], the DC50 was determined as 0.19 nM.
In the same order, the values of `N[C@@H]1[C@@H]2C[C@H]1CN(c1nc(NCc3nc4ccccc4[nH]3)n3ncc(Br)c3n1)C2` [Example 289, 2-[(1R,5S,6s)-6-amino-3-azabicyclo[3.1.1]heptan-3-yl]-N-[(1H-benzimidazol-2-yl)methyl]-8-bromopyrazolo[1,5-a][1,3,5]triazin-4-amine] are 5.15 and 1.76 nM.
Turning to `COc1ccc2[nH]c(CNc3nc(N4CCOCC4)nc4c(C(F)(F)F)cnn34)nc2c1` [Example 257, N-[(5-methoxy-1H-benzimidazol-2-yl)methyl]-2-(morpholin-4-yl)-8-(trifluoromethyl)pyrazolo[1,5-a][1,3,5]triazin-4-amine], the pIC50 at CDK12/CycK was 6.93. The DC50 in experiment [1] was determined as 0.864 nM.
The matching figures for `N[C@@H]1CCN(c2nc(NCc3nc4ccccc4[nH]3)n3ncc(Br)c3n2)C1` [Example 250, 2-[(3R)-3-aminopyrrolidin-1-yl]-N-[(1H-benzimidazol-2-yl)methyl]-8-bromopyrazolo[1,5-a][1,3,5]triazin-4-amine]: 4.95 and 0.407 nM.
In the same order, the values of `FC(F)(F)Cc1cnn2c(NCc3nc4cc(Cl)c(Cl)cc4[nH]3)nc(N3CCOCC3)nc12` [Example 302, N-[(5,6-dichloro-1H-benzimidazol-2-yl)methyl]-2-(morpholin-4-yl)-8-(2,2,2-trifluoroethyl)pyrazolo[1,5-a][1,3,5]triazin-4-amine] are 5.22 and 1.66 nM.
The matching figures for `OCC1CN(c2nc(NCc3nc4ccccc4[nH]3)n3ncc(Br)c3n2)C1` [Example 304, [1-(4-{[(1H-benzimidazol-2-yl)methyl]amino}-8-bromopyrazolo[1,5-a][1,3,5]triazin-2-yl)azetidin-3-yl]methanol]: 4.90 and 12.4 nM.
With `Fc1ccc2[nH]c(CNc3nc(N4CCOCC4)nc4c(C5CC5(F)F)cnn34)nc2c1` (single isomer, unassigned) [Example 314, 8-[(1R or S)-2,2-difluorocyclopropyl]-N-[(5-fluoro-1H-benzimidazol-2-yl)methyl]-2-(morpholin-4-yl)pyrazolo[1,5-a][1,3,5]triazin-4-amine], the pIC50 at CDK12/CycK is 5.00. The DC50 in experiment [1] turned out to be 1.11 nM.
In the case of `Cc1cc2nc(CNc3nc(N4CCN(C)CC4)nc4c(C5CC5)cnn34)[nH]c2cc1C` [Example 312, 8-cyclopropyl-N-[(5,6-dimethyl-1H-benzimidazol-2-yl)methyl]-2-(4-methylpiperazin-1-yl)pyrazolo[1,5-a][1,3,5]triazin-4-amine], the pIC50 at CDK12/CycK was 4.99. Also, the DC50 in experiment [1] came out at 0.518 nM.
The matching figures for `Fc1ccc2[nH]c(CNc3nc(N4C[C@H]5CC[C@@H](C4)N5)nc4c(C5CC5)cnn34)nc2c1F` [Example 294, 8-cyclopropyl-2-[(1R,5S)-3,8-diazabicyclo[3.2.1]octan-3-yl]-N-[(4,5-difluoro-1H-benzimidazol-2-yl)methyl]pyrazolo[1,5-a][1,3,5]triazin-4-amine]: 5.73 and 0.56 nM.
In the same order, the values of `Fc1cc2nc(CNc3nc(N4CCOCC4)nc4c(C5CC5)cnn34)[nH]c2cc1Cl` [Example 307, N-[(6-chloro-5-fluoro-1H-benzimidazol-2-yl)methyl]-8-cyclopropyl-2-(morpholin-4-yl)pyrazolo[1,5-a][1,3,5]triazin-4-amine] are 5.80 and 0.863 nM.
For the compound `FC(F)(F)Cc1cnn2c(NCc3nc4cc(Cl)ccc4[nH]3)nc(N3CCOCC3)nc12` [Example 299, N-[(5-chloro-1H-benzimidazol-2-yl)methyl]-2-(morpholin-4-yl)-8-(2,2,2-trifluoroethyl)pyrazolo[1,5-a][1,3,5]triazin-4-amine], the pIC50 at CDK12/CycK is 5.19. Further, the DC50 in experiment [1] turned out to be 0.484 nM.
In the same order, the values of `CN(CC(C)(C)O)c1nc(NCc2nc3cc(Cl)c(Cl)cc3[nH]2)n2ncc(C3CC3)c2n1` [Example 306, 1-[(8-cyclopropyl-4-{[(5,6-dichloro-1H-benzimidazol-2-yl)methyl]amino}pyrazolo[1,5-a][1,3,5]triazin-2-yl)(methyl)amino]-2-methylpropan-2-ol] are 5.73 and 0.642 nM.
On to `C[C@@H]1CN(c2nc(NCc3nc4ccccc4[nH]3)n3ncc(C4CC4)c3n2)C[C@H](C)N1` [Example 248, N-[(1H-benzimidazol-2-yl)methyl]-8-cyclopropyl-2-[(3R,5S)-3,5-dimethylpiperazin-1-yl]pyrazolo[1,5-a][1,3,5]triazin-4-amine], for which, on CDK12/CycK, the pIC50 was 5.04. Also, the DC50 in experiment [1] is 0.648 nM.
In the same order, the values of `CC(C)CNc1nc(NCc2nc3ccccc3[nH]2)n2ncc(Br)c2n1` [Example 285, N^4-[(1H-benzimidazol-2-yl)methyl]-8-bromo-N^2-(2-methylpropyl)pyrazolo[1,5-a][1,3,5]triazine-2,4-diamine] are 5.19 and 3.46 nM.
In the same order, the values of `N[C@H]1[C@@H]2C[C@H]1CN(c1nc(NCc3nc4ccccc4[nH]3)n3ncc(Br)c3n1)C2` [Example 288, 2-[(1R,5S,6r)-6-amino-3-azabicyclo[3.1.1]heptan-3-yl]-N-[(1H-benzimidazol-2-yl)methyl]-8-bromopyrazolo[1,5-a][1,3,5]triazin-4-amine] are 5.47 and 0.418 nM.
In the case of `FC(F)(F)Cc1cnn2c(NCc3nc4ccccc4[nH]3)nc(N3CCOCC3)nc12.O=CO` [Example 265, formic acid-N-[(1H-benzimidazol-2-yl)methyl]-2-(morpholin-4-yl)-8-(2,2,2-trifluoroethyl)pyrazolo[1,5-a][1,3,5]triazin-4-amine (1/1)], the pIC50 at CDK12/CycK was less than 4.78. The DC50 in experiment [1] is 3.14 nM.
The matching figures for `c1ccc2[nH]c(CNc3nc(N4CCOCC4)nc4c(C5CCC5)cnn34)nc2c1` [Example 263, N-[(1H-benzimidazol-2-yl)methyl]-8-cyclobutyl-2-(morpholin-4-yl)pyrazolo[1,5-a][1,3,5]triazin-4-amine]: 5.16 and 1.82 nM.
In the same order, the values of `Brc1cnn2c(NCc3nc4ccccc4[nH]3)nc(N3C[C@H]4CNC[C@H]4C3)nc12` [Example 283, N-[(1H-benzimidazol-2-yl)methyl]-8-bromo-2-[(3aR,6aS)-hexahydropyrrolo[3,4-c]pyrrol-2(1H)-yl]pyrazolo[1,5-a][1,3,5]triazin-4-amine] are 4.74 and 0.367 nM.
The matching figures for `CC1CN(C)CCN1c1nc(NCc2nc3ccccc3[nH]2)n2ncc(Br)c2n1` (single isomer, unassigned; enantiomer 2) [Example 261, N-(1H-benzimidazol-2-ylmethyl)-8-bromo-2-[(2R or S)-2,4-dimethylpiperazin-1-yl]pyrazolo[1,5-a][1,3,5]triazin-4-amine (Enantiomer 2)]: less than 4.73 and 1.23 nM.
As for `CN[C@H]1CCN(c2nc(NCc3nc4ccccc4[nH]3)n3ncc(Br)c3n2)C1` [Example 252, N-[(1H-benzimidazol-2-yl)methyl]-8-bromo-2-[(3S)-3-(methylamino)pyrrolidin-1-yl]pyrazolo[1,5-a][1,3,5]triazin-4-amine], on CDK12/CycK, the pIC50 is less than 4.70. In addition, the DC50 in experiment [1] came out at 2.42 nM.
